Assay results published in patent publication US5246940A, “Substituted N-biphenylyl lactams” (Ortho Pharmaceutical Corporation, priority 1993, dated 1993).
Structures can show the parent of a compound that is named as a salt. Where two headings read alike, the source gives them in different places.

What was measured:
[1] = test system: plasma renin activity (PRA); experiment: Plasma renin activity by Radioimmuno Assay of Angiotensin I in salt-depleted rats; format: in vivo, Sprague-Dawley rats; settings: salt-depleted animals; about 7.4 after salt depletion before treatment
Description: Method: Male 350-450 g Sprague-Dawley rats are implanted with teflon microcannulae via the middle caudal artery under 20 mg/kg intravenous brevital anesthesia and permitted a 4-7 day surgical recovery period. Throughout recovery and testing animals are individually housed unrestrained in standard rat metabolism cages and receive continuous 0.5 mL/hour intra-arterial 0.25 N saline infusion through a spring-shielded swivelling tether connected to an infusion/blood pressure recording system to maintain arterial cannula patency. Animals are maintained on Low Sodium (0.03%) Pruina Rat Chow #5881 throughout the study. […] Three hours after the second furosemide dose, rats are given test compound uniformly suspended in 1% methylcellulose (n=3/dose level) or 1 mL 1% methylcellulose vehicle (n=3) orally by gavage and blood pressure is continuously recorded for 24 h using a Buxco computerized data recording system. […]
Interpretation: Prior to salt depletion, normotensive rats typically show a plasma renin activity (PRA), measured by Radioimmuno Assay (RIA) of Angiotensin I (as ng Angiotensin I/mL plasma/hour) and yields a RIA of 0.7. […]

[2] = test system: Angiotensin Receptor; experiment: Screening Potential Angiotensin Receptor Antagonists in Salt-Depleted Normotensive Rats (blood pressure after oral dosing); format: in vivo, Sprague-Dawley rats; settings: for Antihypertensive Activity (p.o.): active @ dose: oral, salt-depleted normotensive rats, active = MAP decrease of 10 or more mmHg vs concurrent control
Excerpt: Test Procedure for Screening Potenital Angiotensin Receptor Antagonists in Salt-Depleted Normotensive Rats
Purpose: This test is designed to detect hypotensive effects of a compound after oral dosing in normotensive animals made renin-dependent by salt depletion. [Wong, P. C., Price, W. A., Chiu, A. T., Duncia, J. V., Carini, D. J., Wexler, R. R., Johnson, A. L., and Timmermans, P. B. M. W. M.: Nonpeptide angiotensin II receptor antagonists. VIII. […] J. Pharmacol. Exp. Ther., 252,726 (1990)]
Solution Preparation: Oral 50 mg/kg furosemide doses are prepared from 10 mg/mL solutions of the intravenous pharmaceutical preparation (Lasix injection, Hoechst-Roussel Pharmaceutical). Test compound is uniformly suspended in 1% methylcellulose.
Method: Male 350-450 g Sprague-Dawley rats are implanted with teflon microcannulae via the middle caudal artery under 20 mg/kg intravenous brevital anesthesia and permitted a 4-7 day surgical recovery period. Throughout recovery and testing animals are individually housed unrestrained in standard rat metabolism cages and receive continuous 0.5 mL/hour intra-arterial 0.25 N saline infusion through a spring-shielded swivelling tether connected to an infusion/blood pressure recording system to maintain arterial cannula patency. Animals are maintained on Low Sodium (0.03%) Pruina Rat Chow #5881 throughout the study. After the recovery period animals are given oral 50 mg/kg furosemide (Lasix, Hoechst-Roussel Pharmaceutical) doses on two consecutive days to produce marked diuresis and plasma volume depletion that makes maintenance of normal blood pressure highly dependent on function of the renin-angiotensin-aldosteronesystem. Three hours after the second furosemide dose, rats are given test compound uniformly suspended in 1% methylcellulose (n=3/dose level) or 1 mL 1% methylcellulose vehicle (n=3) orally by gavage and blood pressure is continuously recorded for 24 h using a Buxco computerized data recording system. Compound-induced changes in blood pressure are compared to concurrent vehicle control blood pressures in order to detect drug effect.
Interpretation: Prior to salt depletion, normotensive rats typically show a plasma renin activity (PRA), measured by Radioimmuno Assay (RIA) of Angiotensin I (as ng Angiotensin I/mL plasma/hour) and yields a RIA of 0.7. After the salt-depletion protocol PRA values taken 3 hour after the furosemide dose have risen to about 7.4. […] PRA is increased by this DuP-753 treatment to about 41.4.
Compounds that decrease blood pressure 10 or more mmHg (MAP) compared to concurrent control after oral dosing are considered active in this test. Maximum possible response is about-35 mmHg. See results in Table 2.

[3] = test system: Angiotensin Receptor; experiment: as above; format: in vivo, Sprague-Dawley rats
[4] = target: T1, angiotensin II-induced vasoconstriction (Oryctolagus cuniculus, UniProt P34976); experiment: Inhibition of Angiotensin II Dose-Response in Rabbit Thoracic Aorta; design: from tissue; host or cells: thoracic aorta rings of New Zealand white rabbits; species or system New Zealand white rabbits; settings: for inhibition at 10 µM: read-out: % Inh @ 10^-5 M; for EC90: contraction, 95% C.L. in brackets
T1 sequence (P34976 1-359): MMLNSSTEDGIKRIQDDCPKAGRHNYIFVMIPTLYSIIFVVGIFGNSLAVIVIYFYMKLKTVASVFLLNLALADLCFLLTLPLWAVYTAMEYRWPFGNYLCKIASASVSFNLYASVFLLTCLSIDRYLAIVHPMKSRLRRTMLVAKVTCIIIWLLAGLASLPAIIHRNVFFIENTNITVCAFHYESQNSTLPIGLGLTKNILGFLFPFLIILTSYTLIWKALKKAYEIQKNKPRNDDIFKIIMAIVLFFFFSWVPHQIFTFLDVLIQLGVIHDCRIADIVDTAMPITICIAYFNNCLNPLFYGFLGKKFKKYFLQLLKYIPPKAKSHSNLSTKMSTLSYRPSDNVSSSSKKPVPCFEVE
Description: VII. Cellular and Biochemical pharmacology of DuP 753, an orally active antihypertensive agent. J. Pharmacol. Exp. Ther., 252, 726 (1990)]
Test compounds are diluted in dimethylsulfoxide vehicle such that a 50 μL addition to the tissue bath produces a final bath concentration of 1×10^-5 M compound in Krebs-bicarbonate buffer (baths contain 15 mL Krebs-bicarbonate buffer).
Procedure: 1.8 to 2.3 kg New Zealand white rabbits are sacrificed with an intravenous sodium pentobarbital overdose and the thoracic aorta gently dissected free from the aortic root to the level of the diaphragm, into ice cold Krebs bicarbonate buffer. The aorta is gently freed of clots and adventitia and cleanly cut into 5 mm segments. Each ring is suspended from a Gould isotonic force transducer in a tissue bath containing 15 mL oxygenated Krebs bicarbonate buffer regulated at 37° C. Initial tenison is adjusted to 4.0 g and equilibrated over three 20-minute wash periods with fresh Krebs-bicarbonate buffer to achieve a baseline tension of 3.0 g. […] […] […] In addition, since the test compounds are dissolved in DMSO, DMSO alone is tested in two rings as a vehicle control in each screening experiment.

[5] = target: T1, angiotensin II-induced vasoconstriction; experiment: Angiotensin II Antagonist Dose-Response in Rabbit Thoracic Aorta (Schild plot); design: from tissue; host or cells: thoracic aorta rings of New Zealand white rabbits; species or system New Zealand white rabbits; settings: for Kb: read-out: pA2 (converted)
Excerpt: Angiotensin II Antagonist Dose-Response in Rabbit Thoracic Aorta Purpose: […] [Chiu, […]., Price, W. A., Wong, […]., Duncia, […]., Yoo, S. E., Johnson, A. L., and […].: Nonpeptide angiotensin II receptor antagonists. VII. Cellular and Biochemical pharmacology of […], an orally active antihypertensive agent. J. Pharmacol. Exp. Ther., 252,726 (1990)]. Solution Preparation: […] For each test an aliquot is freshly thawed and serially diluted with Krebs bicarbonate buffer to provide stock solutions of angiotensin II in buffer for addition to the tissue baths. […] Procedure: 1.8 to 2.3 kg New Zealand white rabbits are sacrificed with an intravenous sodium pentobarbital overdose and the thoracic aorta gently dissected free from the aortic root to the level of the diaphragm, into ice cold Krebs bicarbonate buffer. The aorta is gently freed of clots and adventitia and cleanly cut into 5 mm segments. Each ring is suspended from a Gould isotonic force transducer in a tissue bath containing 15 mL oxygenated Krebs bicarbonate buffer regulated at 37° C. […] The test compound is then given to separate rings at different antagonist concentrations (n=2 rings/test concentration) in order to asses antagonist dose-response. The angiotensin II cumulative dose-response is then repeated in the presence of the test compound. Analysis: Angiotensin II vasoconstrictor tension in grams is expressed as a percent of maximal contraction for the before and after test compound angiotensin II dose-responses. […] See results in Table 2.

Molecule	inhibition at 10 µM [4] [%]	Kb [5] [nM]	Antihypertensive Activity (p.o.): active @ dose [2] [mpk]	also measured
CCCCc1nc(Cl)c(CO)n1Cc1ccc(-c2ccccc2-c2nn[nH]n2)cc1 [DuP-753]	–	–	–	plasma renin activity (PRA) after treatment [1]: about 41.4 ng Angiotensin I/mL plasma/hour; blood pressure decrease (mean arterial pressure, MAP) ([2]; salt-depleted animals, typical response): about 35 mmHg; blood pressure response in normotensive rats that have not been salt-depleted [3]: does not change
CCOC(=O)C=C1N(Cc2ccc(-c3ccccc3-c3nnn[nH]3)cc2)C(=O)CC12CCCCC2 [ac, 5-Carbethoxymethyliden-4-spirocyclohexyl-1-[4-(2-tetrazolophenyl)benzyl]pyrrolidin-2-one Pyridinium Salt,1.2 Hydrate]	100	–	30	pA2 ([5]; Schild plot vs angiotensin II, rabbit thoracic aorta rings): 7.93
CCOC(=O)C=C1N(Cc2ccc(-c3ccccc3-c3nnn[nH]3)cc2)C(=O)CC12CCCCCC2 [ad, 5-Carbethoxymethylidine-4-spirocycloheptyl-1-[4-(2-tetrazolophenyl)benzyl]pyrrolidin-2-one Pyridinium Salt, 1.3 Hydrate]	100	4.37	30	–
CCOC(=O)C=C1CC(C)(CC)CC(=O)N1Cc1ccc(-c2ccccc2-c2nnn[nH]2)cc1 (stereo not drawn) [ae, 6-Carbethoxymethyliden-4-ethyl-4-methyl-1-[4-(2-tetrazolophenyl)benzyl]piperidine-2-one Pyridinium Salt, 1.25 Hydrate]	100	1.07	10	–
CCOC(=O)C=C1N(Cc2ccc(-c3ccccc3-c3nnn[nH]3)cc2)C(=O)CC12CCCC2 [af, 5-Carbethoxymethylidine-4-spirocyclopentyl-1-[4-(2-tetrazolophenyl)benzyl]pyrrolidin-5-one Pyridinium Salt, 1.4 Hydrate]	100	3.63	30	–
CCOC(=O)C=C1C2C3CCCC(CC3)C2C(=O)N1Cc1ccc(-c2ccccc2-c2nnn[nH]2)cc1 (stereo not drawn) [ag, 3-Carbethoxymethyliden-2-[4-(2-tetrazolophenyl)benzyl]-4,7-endopropylen-1,3,4,5,6,7-hexahydro-1-oxoisoindole Dihydrate]	100	–	30	–
CCOC(=O)C=C1C2C3C=CC(CCC3)C2C(=O)N1Cc1ccc(-c2ccccc2-c2nnn[nH]2)cc1 (stereo not drawn) [ah, 3-Carbethoxymethyliden-2-[4-(2-tetrazolophenyl)benzyl]-4,7-endopropylen-1,3,4,7-tetrahydro-1-oxoisoindole Pyridinium Salt, 1.75 Hydrate]	100	14.1	> 30	–
CCOC(=O)C=C1C2C3C=CC(C3)C2C(=O)N1Cc1ccc(-c2ccccc2C(=O)OC)cc1 (stereo not drawn) [m, 3-Carbethoxymethyliden-2-[4-(2-carbomethoxyphenyl)benzyl]-4,7-endomethylen-1,3,4,7-tetrahydro-1-oxoisoindole]	0	–	–	–
CCOC(=O)C=C1C2C3C=CC(CC3)C2C(=O)N1Cc1ccc(-c2ccccc2C#N)cc1 (stereo not drawn) [p, 3-Carbethoxymethyliden-2-[4-(2-cyanophenyl)benzyl]-4,7-endoethylen-1,3,4,7-tetrahydro-1-oxoisoindole]	3	–	–	–
angiotensin II [reference compound]	–	–	–	EC90 ([4]; read-out: Mean ED90 for angiotensin II after DMSO vehicle treatment, after DMSO vehicle): 5.88 nM; EC90 ([4]; read-out: Mean ED90 for angiotensin II before DMSO vehicle treatment, before DMSO vehicle): 4.44 nM

Continued, in another order:

inhibition at 10 µM [4] [%]	Kb [5] [nM]	Molecule	Antihypertensive Activity (p.o.): active @ dose [2] [mpk]	also measured
100	39.8	CCOC(=O)C=C1CC(C)(C)CC(=O)N1Cc1ccc(-c2ccccc2-c2nnn[nH]2)cc1 [s, 6-Carbethoxymethyliden-4,4-dimethyl-1-[4-(2-tetrazolophenyl)benzyl]piperidin-2-one Pyridinium salt]	30	–
100	14.1	CCOC(=O)C=C1CC2(CCCC2)CC(=O)N1Cc1ccc(-c2ccccc2-c2nnn[nH]2)cc1 [t, 6-Carbethoxymethyliden-4-spirocyclopentyl-1-[4-(2-tetrazolophenyl)benzyl]piperidin-2-one Pyridinium Salt]	30	–
99	6.92	CCOC(=O)C=C1C2C3C=CC(CC3)C2C(=O)N1Cc1ccc(-c2ccccc2-c2nnn[nH]2)cc1 (stereo not drawn) [u, 3-Carbethoxymethyliden-2-[4-(2-tetrazolophenyl)benzyl]-4,7-endoethylen-1,3,4,7-tetrahydro-1-oxoisoindole]	30	–
100	4.47	CCOC(=O)C=C1C2C3C=CC(C3)C2C(=O)N1Cc1ccc(-c2ccccc2-c2nnn[nH]2)cc1 (stereo not drawn) [v, 3-Carbethoxymethyliden-2-[4-(2-tetrazolophenyl)benzyl]-4,7-endomethylen-1,3,4,7-tetrahydro-1-oxoisoindole Pyridinium Salt]	–	–
0	–	CCOC(=O)C=C1C2C3CCC(C3)C2C(=O)N1Cc1ccc(-c2ccccc2C(=O)OC)cc1 (stereo not drawn) [y, 3-Carbethoxymethyliden-2-[4-(2-carbomethoxyphenyl)benzyl]-4,7-endomethylen-1,3,4,5,6,7-hexahydro-1-oxoisoindole]	–	–
100	1.05	CCOC(=O)C=C1C2C3CCC(C3)C2C(=O)N1Cc1ccc(-c2ccccc2-c2nnn[nH]2)cc1 (stereo not drawn) [z, 3-Carbethoxymethyliden-2-[4-2-(tetrazolophenyl)benzyl]-4,7-endomethylen-1,3,4,5,6,7-hexahydro-1-oxoisoindole]	30	–
